From ChEMBL document CHEMBL4813945, “Discovery and development of novel pyrimidine and pyrazolo/thieno-fused pyrimidine derivatives as potent and orally active inducible nitric oxide synthase dimerization inhibitor with efficacy for arthritis” (Eur J Med Chem, 2021)
Activity calls are given as the source filed them. No cut-off for these calls is given here.

Tests used:
[1] = system: L02; experiment: Antiinflammatory activity against human L02 assessed as inhibition of LPS-induced NO production preincubated for 1 hrs followed by LPS stimulation and measured after 24 hrs by Griess assay relative to control; type: functional, cell-based
[2] = system: RAW264.7; experiment: Inhibition of LPS-induced NO release in mouse RAW264.7 cells preincubated for 1 hrs followed by LPS stimulation and measured after 24 hrs by Griess reagent based assay; type: functional, cell-based
[3] = system: RAW264.7; experiment: Cytotoxicity against LPS-induced mouse RAW 264.7 cells assessed as cell viability measured by MTT assay; type: cell-based
[4] = system: RAW264.7; experiment: Cytotoxicity against mouse RAW 264.7 cells assessed as cell viability by MTT assay; type: cell-based
[5] = system: L02; experiment: Cytotoxicity against human L02 cells assessed as cell viability by MTT assay; type: cell-based
[6] = system: Rattus norvegicus; experiment: Antiinflammatory activity in complete freund's adjuvant-induced male Sprague-Dawley rat model of arthritis assessed as improved cartilage destruction at 80 mg/kg, IG after 4 weeks by H and E staining based histopathological analysis; type: functional, organism-based
[7] = organism: Rattus norvegicus; experiment: Antiinflammatory activity against freund's adjuvant-induced male Sprague-Dawley rat model of arthritis assessed as decrease INOS expression at 40 to 80, IG after 4 weeks measured by staining based immunohistochemical analysis; type: functional, organism-based; conditions: dose 40-80 mg/kg
[8] = Metabolic stability in human hepatocytes assessed as clearance incubated up to 120 mins measured per million cells by LC-MS/MS analysis; type: ADME, cell-based, Hepatocyte; conditions: read-out: CLH
[9] = Metabolic stability in human hepatocytes assessed as parent compound remaining after 120 mins by LC-MS/MS analysis; type: ADME, cell-based, Hepatocyte; conditions: read-out: Stabilty
[10] = Metabolic stability in rat hepatocytes assessed as half life measured upto 120 mins by LC-MS/MS analysis; type: ADME, cell-based, Hepatocyte
[11] = Metabolic stability in rat hepatocytes assessed as intrinsic clearance incubated up to 120 mins measured per million cells by LC-MS/MS analysis; type: ADME, cell-based, Hepatocyte; conditions: read-out: CLH
[12] = biological target: Cytochrome P450 2D6 (Homo sapiens, UniProt P10635); experiment: Inhibition of CYP2D6 in human liver microsomes using Dextromethorphan as substrate measured after 20 mins by LC-MS/MS analysis; type: ADME
Sequence of Cytochrome P450 2D6 (P10635 whole entry): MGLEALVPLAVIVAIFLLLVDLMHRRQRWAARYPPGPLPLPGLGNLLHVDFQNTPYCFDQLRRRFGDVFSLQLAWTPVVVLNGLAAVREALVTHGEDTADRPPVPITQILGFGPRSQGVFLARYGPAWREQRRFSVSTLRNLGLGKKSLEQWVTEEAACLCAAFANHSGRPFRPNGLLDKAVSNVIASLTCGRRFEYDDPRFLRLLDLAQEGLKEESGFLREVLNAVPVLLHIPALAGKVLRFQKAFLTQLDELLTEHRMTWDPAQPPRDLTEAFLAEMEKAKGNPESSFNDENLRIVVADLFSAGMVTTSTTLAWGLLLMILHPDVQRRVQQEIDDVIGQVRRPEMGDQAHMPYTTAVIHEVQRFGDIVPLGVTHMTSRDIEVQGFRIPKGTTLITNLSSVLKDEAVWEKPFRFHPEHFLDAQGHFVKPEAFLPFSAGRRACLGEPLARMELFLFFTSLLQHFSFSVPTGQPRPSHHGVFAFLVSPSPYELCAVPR

[13] = biological target: CYP3A4/5 (Homo sapiens, UniProt P08684+P20815); experiment: Inhibition of CYP3A4/5 in human liver microsomes using Midazolam as substrate measured after 20 mins by LC-MS/MS analysis; type: ADME; conditions: probe Midazolam
[14] = Tmax in Sprague-Dawley rat at 10 mg/kg, po measured after 0.25 to 24 hrs by LC-MS/MS analysis; type: ADME, organism-based; conditions: in vivo, time 0.25-24 hrs
[15] = AUC (0 to infinity) in Sprague-Dawley rat at 10 mg/kg, po measured by LC-MS analysis; type: ADME, organism-based; set-up: time infinity, route oral, dose 10 mg/kg; conditions: in vivo
[16] = Cmax in Sprague-Dawley rat at 1 mg/kg, iv measured after 0.08 to 24 hrs by LC-MS/MS analysis; type: ADME, organism-based; set-up: route intravenous, time upper 24 hrs, dose 1 mg/kg, time lower 0.08 hrs; conditions: in vivo
[17] = Half life in Sprague-Dawley rat at 10 mg/kg, po measured after 0.25 to 24 hrs by LC-MS/MS analysis; type: ADME, organism-based; conditions: in vivo, time 0.25-24 hrs
[18] = Oral bioavailability in Sprague-Dawley rat at 10 mg/kg measured after 0.25 to 24 hrs hrs by LC-MS/MS analysis; type: ADME, organism-based; conditions: in vivo, time 0.25-24 hrs
[19] = Subacute toxicity in rat assessed as change in body weight at 100 to 500 mg/kg, IG administered every other day for 14 days and measured every 2 days; type: organism-based; conditions: in vivo, po, 336 h, dose 100-500 mg/kg, time 14 day
[20] = Subacute toxicity in rat assessed as liver damage at 100 to 500 mg/kg, IG administered every other day for 14 days and measured every 2 days by H and E staining; type: organism-based; conditions: in vivo, po, 336 h, dose 100-500 mg/kg, time 14 day
[21] = system: RAW264.7; experiment: Cytotoxicity against mouse RAW264.7 cells at 20 uM measured after 24 hrs; type: cell-based; conditions: raw264.7, 24 h
[22] = system: Rattus norvegicus; experiment: Antiinflammatory activity in complete freund's adjuvant-induced male Sprague-Dawley rat model of arthritis assessed as reduction in synovial hyperplasia at 40 to 80 mg/kg, IG after 2 weeks by Safranin O staining based histopathological analysis; type: functional, organism-based; conditions: dose 40-80 mg/kg
[23] = system: Rattus norvegicus; experiment: Antiinflammatory activity in complete freund's adjuvant-induced IG dosed male Sprague-Dawley rat model of arthritis assessed as decrease in IL-6 level in serum after 4 weeks by ELISA; type: functional, organism-based; conditions: dose 40-80 mg/kg
[24] = Acute toxicity in rat assessed as liver necrosis at 200 to 500 mg/kg measured after 7 days by H and E staining based assay; type: organism-based; conditions: in vivo, 168 h, dose 200-500 mg/kg, time 7 day
[25] = Acute toxicity in rat assessed as weight loss at 2000 mg/kg, IG administered as single dose; type: organism-based; conditions: in vivo, po
[26] = Subacute toxicity in rat assessed as lung damage at 100 to 500 mg/kg, IG administered every other day for 14 days and measured every 2 days by H and E staining; type: organism-based; conditions: in vivo, po, 336 h, dose 100-500 mg/kg, time 14 day
[27] = Subacute toxicity in rat assessed as anorexia at 100 to 500 mg/kg, IG administered every other day for 14 days and measured every 2 days; type: organism-based; conditions: in vivo, po, 336 h, dose 100-500 mg/kg, time 14 day
[28] = Subacute toxicity in rat assessed as drowsiness at 100 to 500 mg/kg, IG administered every other day for 14 days and measured every 2 days; type: organism-based; conditions: in vivo, po, 336 h, dose 100-500 mg/kg, time 14 day

SMILES: COc1cc(/C=C/c2nc(NCc3ccc(C)cc3)c3sccc3n2)cc(OC)c1OC
- IC50 [1]: > 1000 µM
- IC50 [2]: 1.86 µM
- IC50 [3]: > 50 µM
- IC50 [4]: > 50 µM
- IC50 [5]: 2930 µM
- Activity [6]: Active
- Activity [7]: Active
- hepatocyte CLint [8]: 2.1 µL/min/1e6 cells
- remaining at 2 h [9]: 77.5%
- half-life [10]: 0.925 h
- hepatocyte CLint [11]: 12.6 µL/min/1e6 cells
- IC50 [12]: > 50 µM
- IC50 at 20 min [13]: > 50 µM
- Tmax [14]: 3.33 h
- AUC [15]: 1152 ng·h/mL
- Cmax [16]: 388 ng/mL
- half-life [17]: 4.91 h
- bioavailability [18]: 29.9%
- Activity [19]: Toxic
- Activity [20]: Non-Toxic
- Activity [21]: Non-Toxic
- Activity [22]: Active
- Activity [23]: Dose-Dependent Effect
- Activity [24]: Toxic
- Activity [25]: Non-Toxic
- Activity [26]: Non-Toxic
- Activity [27]: Non-Toxic
- Activity [28]: Non-Toxic
